From paper PMC12396409, “Screening and hit evaluation of a microbial metabolite library against the pathogenic Plasmodium falciparum and Toxoplasma gondii parasites” (International Journal for Parasitology: Drugs and Drug …, 2025)
Structures can show the parent of a compound that is named as a salt. Where two headings read alike, the source gives them in different places.

Key:
[1] = tested on: P. falciparum 3D7 parasites; assay: P. falciparum growth inhibition assay, 2-cycle (120 h treatment), delayed-death screen and dose-response; type: cell-based, Plasmodium falciparum; conditions: for activity at 2 µg/mL: Plasmodium falciparum, 3D7, 120 h
[2] = tested on: P. falciparum 3D7 parasites; assay: P. falciparum growth inhibition assay, 1-cycle (72 h treatment), SYBR DNA staining (library screen at 2 μg/mL and dose-response); type: cell-based, Plasmodium falciparum; conditions: for activity at 2 µg/mL: Plasmodium falciparum, 3D7, 72 h
[3] = tested on: T. gondii RH strain (RH-Tub-eYFP) tachyzoites; assay: microbe, parasite or virus in culture; type: cell-based, Toxoplasma gondii; conditions: 72 h, 72 h; for percent parasite growth at 2 µg/mL: Toxoplasma gondii
[4] = P. falciparum, 120 h, parasite screen 2 μg/mL, % growth, replicate 1
[5] = P. falciparum, 120 h, parasite screen 2 μg/mL, % growth, replicate 2
[6] = P. falciparum, 72 h, parasite screen 2 μg/mL, % growth, replicate 1
[7] = P. falciparum, 72 h, parasite screen 2 μg/mL, % growth, replicate 2
[8] = T. gondii, parasite screen 2 μg/mL, % growth, replicate 1
[9] = T. gondii, parasite screen 2 μg/mL, % growth, replicate 2
[10] = P. falciparum, 120 h, screen at 2 μg/mL, replicate 1
[11] = P. falciparum, 120 h, screen at 2 μg/mL, replicate 2
[12] = P. falciparum, 72 h, screen at 2 μg/mL, replicate 1
[13] = P. falciparum, 72 h, screen at 2 μg/mL, replicate 2
[14] = T. gondii, screen at 2 μg/mL, replicate 1
[15] = T. gondii, screen at 2 μg/mL, replicate 2

C/C(=C\c1csc(C)n1)[C@@H]1C[C@@H]2O[C@@H]2CCC[C@H](C)[C@H](O)[C@@H](C)C(=O)C(C)(C)[C@@H](O)CC(=O)O1 [Epothilone A] showed an activity at 2 µg/mL ([1]; library screen at 2 μg/mL, 120 h, % growth, replicate 1, read-out: Pf_120h_%Growth_Rep1) of -6.26%, an activity at 2 µg/mL ([1]; library screen at 2 μg/mL, 120 h, % growth, replicate 2, read-out: Pf_120h_%Growth_Rep2) of 10.7% and an activity at 2 µg/mL ([2]; library screen at 2 μg/mL, 72 h, % growth, replicate 1, read-out: Pf_72h_%Growth_Rep1) of 5.34%. The activity at 2 µg/mL ([2]; library screen at 2 μg/mL, 72 h, % growth, replicate 2, read-out: Pf_72h_%Growth_Rep2) was 6.86%, the percent parasite growth at 2 µg/mL ([3]; library screen at 2 μg/mL, % growth, replicate 1, read-out: Tg_72h_%Growth_Rep1) was 2.49% and the percent parasite growth at 2 µg/mL ([3]; library screen at 2 μg/mL, % growth, replicate 2, read-out: Tg_72h_%Growth_Rep2) was 2.65%.
CC1=C[C@H]2C(=O)O[C@H]3C[C@@H](C/C=C(/C)[C@@H](O)[C@@H](C)/C=C\C=C4CO[C@H]([C@@H]1O)[C@@]42O)O[C@@]1(C=C[C@H](C)[C@@H](C2CCCCC2)O1)C3 [Doramectin aglycone] gave a Pf_120h_%Growth_Rep1 ([1]; library screen at 2 μg/mL, 120 h, % growth, replicate 1) of 86.97%, a Pf_120h_%Growth_Rep2 ([1]; library screen at 2 μg/mL, 120 h, % growth, replicate 2) of 81.83% and a Pf_72h_%Growth_Rep1 ([2]; library screen at 2 μg/mL, 72 h, % growth, replicate 1) of 80.09%. It also gave a Pf_72h_%Growth_Rep2 ([2]; library screen at 2 μg/mL, 72 h, % growth, replicate 2) of 78.66%, a Tg_72h_%Growth_Rep1 ([3]; library screen at 2 μg/mL, % growth, replicate 1) of 167.81% and a Tg_72h_%Growth_Rep2 ([3]; library screen at 2 μg/mL, % growth, replicate 2) of 107.39%.
Compound C[C@@]12CCC[C@@]34CCC[C@@H](C=C[C@H]1CC3)N42 [Porantherine] has a Pf_120h_%Growth_Rep1 [1, 4] of 101.33%, a Pf_120h_%Growth_Rep2 [1, 5] of 98.35% and a Pf_72h_%Growth_Rep1 [2, 6] of 85.43%. It also gave a Pf_72h_%Growth_Rep2 [2, 7] of 115.67%, a Tg_72h_%Growth_Rep1 [3, 8] of 90.85% and a Tg_72h_%Growth_Rep2 [3, 9] of 74.43%.
For OCC1=C[C@@H](N[C@H]2C[C@H](CO)[C@@H](O[C@H]3O[C@@H](CO)[C@H](O)[C@@H](O)[C@@H]3O)[C@H](O)[C@H]2O)[C@H](O)[C@@H](O)[C@@H]1O [Validamycin A], the Pf_120h_%Growth_Rep1 [1, 10] was 167.49%, the Pf_120h_%Growth_Rep2 [1, 11] was 74.14% and the Pf_72h_%Growth_Rep1 [2, 12] was 75.67%. For the same compound, the Pf_72h_%Growth_Rep2 [2, 13] was 70.52%, the Tg_72h_%Growth_Rep1 [3, 14] was 87.00% and the Tg_72h_%Growth_Rep2 [3, 15] was 98.14%.
COC(=O)[C@H]1NC(=O)[C@H]2NC(=O)[C@H](NC(=O)[C@@H]3NC(=O)[C@H]4NC(=O)[C@H](NC(=O)[C@H](N)c5ccc(O)c(c5)Oc5cc4cc(O)c5C)[C@H](O)c4ccc(cc4)Oc4cc3cc(c4O[C@@H]3O[C@H](COC4O[C@@H](C)[C@H](O)[C@@H](O)[C@H]4O)[C@@H](O)[C@H](O)[C@H]3O[C@@H]3O[C@@H](CO)[C@H](O)[C@@H](O)[C@H]3O[C@@H]3OC[C@@H](O)[C@@H](O)[C@@H]3O)Oc3ccc(cc3)[C@H]2O[C@@H]2C[C@@H](N)[C@@H](O)[C@H](C)O2)c2ccc(O)c(c2)-c2c(O[C@@H]3O[C@H](CO)[C@@H](O)[C@H](O)[C@@H]3O)cc(O)cc21 (stereo partly drawn) [Ristocetin A sulfate] showed a Pf_120h_%Growth_Rep1 [1, 4] of 82.07%, a Pf_120h_%Growth_Rep2 [1, 5] of 109.30% and a Pf_72h_%Growth_Rep1 [2, 6] of 85.98%. For the same compound, the Pf_72h_%Growth_Rep2 [2, 7] was 111.61%, the Tg_72h_%Growth_Rep1 [3, 8] was 119.41% and the Tg_72h_%Growth_Rep2 [3, 9] was 85.51%.
Work on COc1cc(C)c2c(OC)cc(=O)oc2c1-c1c(OC)cc(C)c2c(OC)cc(=O)oc12 [BIA-K1634] yielded a Pf_120h_%Growth_Rep1 ([1]; P. falciparum 3D7, 120 h, library screen at 2 μg/mL, % growth, replicate 1) of 81.50%, a Pf_120h_%Growth_Rep2 ([1]; P. falciparum 3D7, 120 h, library screen at 2 μg/mL, % growth, replicate 2) of 124.49% and a Pf_72h_%Growth_Rep1 ([2]; P. falciparum 3D7, 72 h, library screen at 2 μg/mL, % growth, replicate 1) of 79.71%. For the same compound, the Pf_72h_%Growth_Rep2 ([2]; P. falciparum 3D7, 72 h, library screen at 2 μg/mL, % growth, replicate 2) was 89.27%, the Tg_72h_%Growth_Rep1 ([3]; T. gondii RH, library screen at 2 μg/mL, % growth, replicate 1) was 128.61% and the Tg_72h_%Growth_Rep2 ([3]; T. gondii RH, library screen at 2 μg/mL, % growth, replicate 2) was 101.38%.
Viridicatumtoxin was tested, and the Pf_120h_%Growth_Rep1 [1, 10] was 6.51%, the Pf_120h_%Growth_Rep2 [1, 11] was 13.13% and the Pf_72h_%Growth_Rep1 [2, 12] was 2.34%. It also gave a Pf_72h_%Growth_Rep2 [2, 13] of 2.82%, a Tg_72h_%Growth_Rep1 [3, 14] of 122.40% and a Tg_72h_%Growth_Rep2 [3, 15] of 65.71%.
